Laboratory results taken from publication PMC7563222, “Recognition of Dimeric Lewis X by Anti-Dimeric Le^x Antibody SH2” (Vaccines, 2020).
Where two headings read alike, the source gives them in different places.

What was measured:
mAb SH2 [1] = assay: Indirect titration ELISA of SH2 ascites against coated glycoconjugates; type: binding, mouse; details: antigens coated at 10 μg/mL; 2 and 5 also at 20 µg/mL (not shown)
Experimental: MaxiSorp NUNC 96-well enzyme-linked immunosorbent assay (ELISA) microtiter plate (Thermo Fisher Scientific) was coated with a dilution of glycoconjugates 1–5 and BSA (100 μL per well, […]) in a 10 mM phosphate-buffered saline (PBS) solution at pH 7.1. The plate was covered with sealing tape and incubated at 4 °C overnight. The antigen solution was discarded, and the plate was washed (using ELx405 auto plate washer, 5 × 15 s) with a 10 mM PBS buffer at pH 7.3 containing 0.05% Tween 20. The plate was blocked with 0.05% skim milk in 10 mM PBS (300 μL per well) and incubated for 1 h at 37 °C. The plate was then washed with 10 mM PBS-0.05% Tween 20. A 1:100 dilution of SH2 ascites was prepared and 146 μL of the dilution was distributed in the wells corresponding to the primary dilution. All other wells received 100 μL of the 10 mM PBS-0.05% Tween 20 pH 7.3 buffer. In-plate serial dilutions were performed in which 46 μL of the primary dilution was pipetted downward along the rows. The well contents were mixed by rinsing the pipette tips (7×). Lastly, 46 μL of the mAb solution was removed and discarded from the wells, which received the final solution of mAb (final volume in all wells, 100 μL). The last row of the 96-well plate was used as the blank control. MAb SH2 ascites were not pipetted into these wells, rather 100 μL of 10 mM PBS-0.05% Tween 20 was added. The plate was incubated for 2 h at 23 °C (in the dark). The plate was subsequently washed using the plate washer with PBS-0.05% Tween 20. A dilution of commercially available horseradish peroxidase labeled goat anti-mouse antibody (Mandel Scientific) (1:5000 in 10 mM PBS-0.05% Tween 20, 100 μL per well) was added to each well. After 1 h of incubation at 23 °C (in the dark), the plate was washed with PBS-0.05% Tween 20. A solution of the chromogenic substrate 3,3′,5,5′-tetramethylbenzidine (TMB) (Mandel Scientific) (100 μL per well) was added. After a 10 min incubation period at 23 °C (in the dark), 100 μL of 5% Phosphoric Acid stop solution was added to the wells to quench the reaction. The absorbance values were read at 450 nm employing a PowerWave XS plate reader. All samples were prepared in triplicate. The absorbance values were plotted against an increasing serum dilution. The values were fitted to a 4-parameter logistics sigmoidal equation: y = y0 + a/[1 + (x/x0)^b] using Sigma Plot®® 10.0.

mAb SH2 [2] = assay: Competitive ELISA: inhibition of mAb SH2 binding to immobilized (DimLe^x)16-BSA conjugate 1; parameters: species or system mouse; details: for IC50: DimLe^x-BSA conjugate 1 immobilized (5 μg/mL), SH2 ascites 1:500; for ∆(∆G): RT ln([I1]/[I2]), reference inhibitor DimLe^x 6; for ∆(∆G) / SH2 ∆(∆G): T = 296 K; for SH2 ∆(∆G): reference inhibitor Le^x 7, --- = No inhibition
Experimental: A MaxiSorp NUNC 96-well ELISA microtiter plate was coated with a dilution of the (DimLe^x)16-BSA conjugate 1 (100 μL per well, 5 μg/mL) in a 10 mM PBS solution at pH 7.1. The plate was covered with sealing tape and incubated at 4 °C overnight. The antigen solution was discarded, and the plate was washed (using ELx405 auto plate washer, 5 × 15 s) with a 10 mM PBS buffer at pH 7.3 containing 0.05% Tween 20. In 1.5 mL Eppendorf tubes, 175 μL dilutions of competitors (concentration ranging from 0.632 mg/mL to 2 mg/mL in 10 mM PBS-0.05% Tween 20) were incubated for 1 h at 23 °C (in the dark) with 175 μL of a solution of SH2 ascites (1:500 dilution in 10 mM PBS-0.05% Tween 20). At the same time, the plate was blocked with 0.05% skim milk in PBS (300 μL per well). After 1 h of incubation at 37 °C, the plate was washed with 10 mM PBS-0.05% Tween 20. Each well then received 100 μL of the competitor-mAb mixture. Three wells were used as the blank control in which the competitor-mAb mixture was not added, rather received 100 μL of 10 mM PBS-0.05% Tween 20. The plate was incubated for 3 h at 23 °C (in the dark). The plate was subsequently washed using the plate washer with PBS-0.05% Tween 20. A dilution of commercially available horseradish peroxidase labeled goat anti-mouse antibody (1:5000 in 10 mM PBS-0.05% Tween 20, 100 μL per well) was added to each well. After 1 h of incubation at 23 °C (in the dark), the plate was washed with 10 mM PBS-0.05% Tween 20. A solution of the chromogenic substrate TMB (100 μL per well) was added. After a 10 min incubation period at 23 °C (in the dark), 100 μL of 5% Phosphoric Acid stop solution was added to the wells to quench the reaction. The absorbance values were read at 450 nm employing a PowerWave XS plate reader. All samples were prepared in triplicate. The absorbance values were plotted as the percentage inhibition against an increasing concentration of competitor, calculated using wells containing no competitor as the reference point. The values were fitted to a 4-parameter logistics sigmoidal equation: y = y0 + a/[1 + (x/x0)^b] using Sigma Plot 10.0. The concentration of each analogue required for 50% inhibition (IC50) of Le^x-SH2 binding and the corresponding changes in free energy Δ(ΔG) of binding (kcal·mol^−1) using DimLe^xOPr 6 (Table 1) or Le^xOMe 7 (Table 2) as the reference were calculated.

mAb 1G5F6 = system: mAb 1G5F6; parameters: method as in PMID 31666308; details: DimLe^x-BSA conjugate 1 immobilized; Le^x trisaccharide 7 as reference; --- = No inhibition; cited from earlier work
mAb SH1 = details: cited from earlier work; for SH1 ∆(∆G): Le^x-BSA conjugate 4 immobilized, Le^x trisaccharide 7 as reference, --- = No inhibition
[3] = Table 1, read-out: IC50 (concentration of inhibitor required for 50% inhibition)

Molecule	1G5F6 ∆(∆G) (mAb 1G5F6) [kcal/mol]	SH2 ∆(∆G) (mAb SH2 [2]; Table 2) [kcal/mol]	SH1 ∆(∆G) (mAb SH1) [kcal/mol]	IC50 (mAb SH2 [2]; Table 2, read-out: SH2 IC50) [µM]	further results
(Le^x)35-BSA [compound 4]	–	–	–	–	Binding of SH2 to coated antigen (titration, in words) (mAb SH2 [1]): weakly binds; Inhibition of SH2 binding to (DimLe^x)16-BSA by glycoconjugates as soluble inhibitors (in words) (mAb SH2 [2]; (DimLe^x)16-BSA 1 immobilized, SH2 serum dilution 1:500 (Figure 5)): did not
CO[C@@H]1O[C@H](CO)[C@@H](O[C@@H]2O[C@H](CO)[C@H](O)[C@H](O)[C@H]2O)[C@H](O[C@@H]2O[C@@H](C)[C@@H](O)[C@@H](O)[C@@H]2O)[C@H]1NC(C)=O [compound 7, Le^x methyl glycoside]	0	0	0	–	IC50 (mAb SH2 [2]; [3]): 47 µM; ∆(∆G) (mAb SH2 [2]; Table 1): -1.4 kcal/mol
CO[C@@H]1O[C@H](CO)[C@@H](O[C@@H]2O[C@H](CO)[C@H](Cl)[C@H](O)[C@H]2O)[C@H](O[C@@H]2O[C@@H](C)[C@@H](O)[C@@H](O)[C@@H]2O)[C@H]1O [compound 21, 4″-ClLe^x]	0.3	-0.5	1.6	19	–
CCCO[C@@H]1O[C@H](CO)[C@@H](O[C@@H]2O[C@H](CO)[C@H](O)[C@H](O[C@@H]3O[C@H](CO)[C@@H](O[C@@H]4O[C@H](CO)[C@H](O)[C@H](O)[C@H]4O)[C@H](O[C@@H]4O[C@@H](C)[C@@H](O)[C@@H](O)[C@@H]4O)[C@H]3NC(C)=O)[C@H]2O)[C@H](O[C@@H]2O[C@@H](C)[C@@H](O)[C@@H](O)[C@@H]2O)[C@H]1NC(C)=O [compound 6, DimLe^x propyl hexasaccharide]	–	–	–	–	IC50 (mAb SH2 [2]; [3]): 503 µM; ∆(∆G) (mAb SH2 [2]; Table 1): 0 kcal/mol
COC1OC(CO)C(OC2OC(CO)C(O)C(O)C2O)C(OC2OC(C)C(O)C(O)C2O)C1NC(C)=O (stereo not drawn) [compound 16, GlcLe^x]	2.7	–	–	> 1800	Inhibition of SH2 binding to (DimLe^x)16-BSA by soluble oligosaccharide (in words) (mAb SH2 [2]): no inhibition; Binding by SH1 (in words) (mAb SH1; galactose of Le^x replaced by glucose): total loss of binding
(DimLe^x)6-TT [compound 2]	–	–	–	–	Binding of SH2 to coated antigen (titration, in words) (mAb SH2 [1]): very little binding
CO[C@@H]1O[C@H](CO)[C@@H](O[C@@H]2O[C@H](CO)[C@H](O)[C@H](O)[C@H]2O)[C@H](O[C@@H]2O[C@@H](C)[C@H](O)[C@@H](O)[C@H]2O)[C@H]1O [compound 18, RhaLac]	3.2	–	1.5	> 1800	Inhibition of SH2 binding to (DimLe^x)16-BSA by soluble oligosaccharide (in words) (mAb SH2 [2]): no inhibition
CO[C@@H]1O[C@H](CO)[C@@H](O[C@@H]2O[C@H](CO)[C@H](O)[C@H](O)[C@H]2O)[C@H](O[C@@H]2O[C@@H](C)[C@H](O)[C@@H](O)[C@H]2O)[C@H]1NC(C)=O [compound 17, RhaLe^x]	1.6	1.7	1.1	827	–
CO[C@@H]1O[C@H](CO)[C@@H](O[C@@H]2O[C@H](CO)[C@H](O)[C@H](O[C@@H]3O[C@H](CO)[C@@H](O)[C@H](O)[C@H]3NC(C)=O)[C@H]2O)[C@H](O[C@@H]2O[C@@H](C)[C@@H](O)[C@@H](O)[C@@H]2O)[C@H]1NC(C)=O [compound 10, GlcNAc[1,3″]Le^x]	–	–	–	–	IC50 (mAb SH2 [2]; [3]): 18600 µM; ∆(∆G) (mAb SH2 [2]; Table 1): 2.1 kcal/mol
CO[C@@H]1O[C@H](CO)[C@@H](O[C@@H]2O[C@H](CO)C[C@H](O)[C@H]2O)[C@H](O[C@@H]2O[C@@H](C)[C@@H](O)[C@@H](O)[C@@H]2O)[C@H]1O [compound 20, 4″-HLe^x]	0.3	0.3	1.3	74	–
bovine serum albumin [BSA, reference compound]	–	–	–	–	Binding of SH2 to coated antigen (titration, in words) (mAb SH2 [1]): no affinity
CO[C@@H]1O[C@H](CO)[C@@H](O[C@@H]2O[C@H](CO)[C@H](F)[C@H](O)[C@H]2O)[C@H](O[C@@H]2O[C@@H](C)[C@@H](O)[C@@H](O)[C@@H]2O)[C@H]1O [compound 22, 4″-FLe^x]	-0.1	-0.6	2.1	17	–
CO[C@@H]1O[C@H](CO)[C@@H](O[C@@H]2O[C@H](CO)[C@H](O)[C@H](O)[C@H]2O)[C@H](O[C@@H]2O[C@@H](C)[C@@H](O)[C@@H](O)[C@@H]2O)[C@H]1O [compound 15, LacLe^x]	2.5	–	0.2	> 1800	Inhibition of SH2 binding to (DimLe^x)16-BSA by soluble oligosaccharide (in words) (mAb SH2 [2]): no inhibition
CC(=O)NC1C(OC2C(O)C(O)OC(CO)C2O)OC(CO)C(OC2OC(CO)C(O)C(O)C2O)C1OC1OC(C)C(O)C(O)C1O (stereo not drawn) [compound 9, Lex[1,3]Gal, reference compound]	–	–	–	–	IC50 (mAb SH2 [2]; [3]): 529 µM; ∆(∆G) (mAb SH2 [2]; Table 1): 0.03 kcal/mol
CO[C@@H]1O[C@H](CO)[C@@H](O[C@@H]2O[C@H](CO)[C@H](OC)[C@H](O)[C@H]2O)[C@H](O[C@@H]2O[C@@H](C)[C@@H](O)[C@@H](O)[C@@H]2O)[C@H]1O [compound 19]	–	0.7	–	148	–
CCCCCCO[C@@H]1O[C@H](CO)[C@@H](O[C@@H]2O[C@H](CO)[C@H](O)[C@H](O[C@@H]3O[C@H](CO)[C@@H](O[C@@H]4O[C@H](CO)[C@H](O)[C@H](O)[C@H]4O)[C@H](O)[C@H]3NC(C)=O)[C@H]2O)[C@H](O[C@@H]2O[C@@H](C)[C@@H](O)[C@@H](O)[C@@H]2O)[C@H]1NC(C)=O [compound 13, LacNAc[1,3″]Lex]	–	–	–	–	Inhibition of SH2 binding to (DimLe^x)16-BSA by soluble oligosaccharide (in words) (mAb SH2 [2]): lack of competitive binding
(GDimLe^x)16-BSA [compound 5]	–	–	–	–	Binding of SH2 to coated antigen (titration, in words) (mAb SH2 [1]): no binding
CCCCCO[C@@H]1O[C@H](CO)[C@@H](O[C@@H]2O[C@H](CO)[C@H](O)[C@H](O[C@@H]3O[C@H](CO)[C@@H](O)[C@H](O[C@@H]4O[C@@H](C)[C@@H](O)[C@@H](O)[C@@H]4O)[C@H]3NC(C)=O)[C@H]2O)[C@H](O[C@@H]2O[C@@H](C)[C@@H](O)[C@@H](O)[C@@H]2O)[C@H]1NC(C)=O [compound 14, Fuc[1,3,]GlcNAc[1,3″]Le^x]	–	–	–	–	Inhibition of SH2 binding to (DimLe^x)16-BSA by soluble oligosaccharide (in words) (mAb SH2 [2]): lack of competitive binding
